Test [1] concerns the target Matrix metalloproteinase-9 (Homo sapiens) (UniProt P14780). As to the kind of experiment: Induction of MMP9 activity in human T24 cells after 1 hr by zymography. The test is classed as cell-based. To be noted: T-24.
A further test has as its system J82. Nature of the test: Cytotoxicity against human J82 cells at 10 uM after 72 hrs by MTT assay. The test is classed as functional, cell-based. On the technique in general: Formazan colour is commonly taken as a measure of viable cells.
The subject of test [2] is T-24. Nature of the test: Growth inhibition of human T24 cells assessed as reduction of cell count after trypsinization at 10 uM after 72 hrs by MTT assay. The test is classed as functional, cell-based.
For the next test, the system named is MDA-MB-231. As to the kind of experiment: Cytotoxicity against human MDA-MB-231 cells at 10 uM after 72 hrs by MTT assay. The test is classed as functional, cell-based.
Test [3] deals with T-24. As to the kind of experiment: Inhibition of human T24 cell migration by wound healing assay. The test is classed as functional, cell-based.
In the next test the test system is Caco-2. Nature of the test: Cytotoxicity against human Caco-2 cells at 10 uM after 72 hrs by MTT assay. The test is classed as functional, cell-based.
Test [4] deals with T-24. As to the kind of experiment: Inhibition of human T24 cells invasion on Matrigel after 24 hrs. The test is classed as functional, cell-based.
For test [5], the system named is T-24. As to the kind of experiment: Cytotoxicity against human T24 cells assessed as inhibition of clones formation at 10 uM after 1 week by clonogenic assay. The test is classed as functional, cell-based.
Test [6] deals with T-24. As to the kind of experiment: Cytotoxicity against human T24 cells at 10 uM after 72 hrs by MTT assay. The test is classed as functional, cell-based.

The source made the active and inactive calls. The rule behind the calls is not given here.

In ChEMBL document CHEMBL1287719, “N⁶-Alkyladenosines: Synthesis and evaluation of in vitro anticancer activity” (Bioorg Med Chem, 2010) one finds Activity and inhibition data, which are given here for five molecules.

Sequence of Matrix metalloproteinase-9 (Homo sapiens) (P14780 whole entry): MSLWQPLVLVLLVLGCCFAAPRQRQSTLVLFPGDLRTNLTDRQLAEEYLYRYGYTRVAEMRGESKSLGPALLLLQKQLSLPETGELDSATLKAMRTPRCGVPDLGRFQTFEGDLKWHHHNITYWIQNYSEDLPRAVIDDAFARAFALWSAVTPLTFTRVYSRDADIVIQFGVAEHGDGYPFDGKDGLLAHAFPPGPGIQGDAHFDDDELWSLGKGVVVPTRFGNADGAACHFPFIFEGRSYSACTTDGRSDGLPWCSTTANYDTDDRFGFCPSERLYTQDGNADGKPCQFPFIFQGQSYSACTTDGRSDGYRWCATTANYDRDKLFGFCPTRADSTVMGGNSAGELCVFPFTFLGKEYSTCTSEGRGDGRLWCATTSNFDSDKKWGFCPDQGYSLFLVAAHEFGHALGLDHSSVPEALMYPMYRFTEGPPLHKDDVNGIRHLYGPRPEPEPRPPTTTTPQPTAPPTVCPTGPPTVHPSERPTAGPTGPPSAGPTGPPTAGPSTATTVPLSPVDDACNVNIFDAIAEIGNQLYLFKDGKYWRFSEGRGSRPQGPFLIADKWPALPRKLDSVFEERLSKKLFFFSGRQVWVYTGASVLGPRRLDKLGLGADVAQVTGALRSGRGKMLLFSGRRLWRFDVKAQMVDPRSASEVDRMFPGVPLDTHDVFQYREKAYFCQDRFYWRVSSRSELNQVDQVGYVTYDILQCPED

As for `CCCCNc1ncnc2c1ncn2[C@@H]1O[C@H](CO)[C@@H](O)[C@H]1O`, the outcome (in test [1]; in the test on T-24 [3]) was inactive. Further, the result in the test on J82, in the test with T-24 [2], in the test on MDA-MB-231, in the test on Caco-2, with T-24 [5] and with T-24 [6] was Active. In the test on T-24 [4], the inhibition result is “inactive”.

In the case of `OC[C@H]1O[C@@H](n2cnc3c(NCc4ccccc4)ncnc32)[C@H](O)[C@@H]1O`, the result (in test [1]; in the test with T-24 [3]) was inactive. Besides, the result in the test on J82, with T-24 [2], in the test with MDA-MB-231, in the test with Caco-2, in the test with T-24 [5] and with T-24 [6] was Active. The inhibition entry with T-24 [4] is “inactive”.

As for `C=CCNc1ncnc2c1ncn2[C@@H]1O[C@H](CO)[C@@H](O)[C@H]1O`, the outcome (in test [1]; with T-24 [3]) was inactive. In addition, the result in the test on J82, in the test on T-24 [2], in the test on MDA-MB-231, in the test on Caco-2, with T-24 [5] and with T-24 [6] was Active. Also, the inhibition entry in the test on T-24 [4] is “inactive”.

`CC(C)CCNc1ncnc2c1ncn2[C@@H]1O[C@H](CO)[C@@H](O)[C@H]1O`: the outcome (in [1]; with T-24 [3]) was inactive. Moreover, the result with J82, in the test on T-24 [2], in the test on MDA-MB-231, with Caco-2, in the test on T-24 [5] and in the test with T-24 [6] was Active. Further, the inhibition result in the test on T-24 [4] was “inactive”.

In the case of `OC[C@H]1O[C@@H](n2cnc3c(NCC4CCC4)ncnc32)[C@H](O)[C@@H]1O`, the outcome (in test [1]; in the test with T-24 [3]) was inactive. The result in the test on J82, with T-24 [2], in the test on MDA-MB-231, with Caco-2, in the test with T-24 [5] and in the test with T-24 [6] was Active. For the same molecule, in the test on T-24 [4], the inhibition entry is “inactive”.
